Patent US20210380952A1, “Method to Produce Virus in Cultured Cells Supplemented With Alpha-Ketoglutarate” (THE TRUSTEES OF PRINCETON UNIVERSITY, priority 2012, published 2021)
Like-named read-outs stand apart in the source and are kept apart here.

Experiments:
AD169 strain of HCMV = type: cell-based, human cytomegalovirus; details: for HCMV yield, fold change relative to no treatment (NT): MRC5, 0.5 IU/cell, 96 h after infection
Method: Cells were infected with the AD169 strain of HCMV at a multiplicity of 0.5 infectious units/cell, and immediately following a 2-hour adsorption period, cells were fed with medium (Dulbecco's Modified Eagle Medium, DMEM) containing 10% fetal calf serum plus various fatty acids, cholesterol and carbonyl scavenging compound. At 96 hours post infection, infectious virus in the medium was assayed by fluorescent focus assay using antibody to the HCMV IE1 protein.
Briefly, About 90% confluent MRC5 human fibroblasts were infected with HCMV at a multiplicity of 0.5 IU/cell. Two hours after infection, medium was replaced with fresh medium containing 10% fetal calf serum and either of oleic acid (OA, up to about 100 μM), linoliec acid (LA, up to about 100 μM), a-linolenic acid (LLA, up to about 100 μM), eicosapentaenoic acid (EPA, up to about 75 μM), or docosahexaenoic acid (DHA, up to about 50 μM). The experiment was also performed in the presence of either aminoguanidine (AG, up to about 250 μM) or cholesterol (chol., up to about 13 μM). Virus production at 96 hours after infection was determined by fluorescent focus assay in MRC-5 cells and shown as a fold change relative to no treatment (NT) which was 5×10^5 infectious units. The fold-changes are the average of two independent infections.
Briefly, about 90% confluent MRC5 fibroblasts were infected with HCMV at a multiplicity of 0.5 IU/cell. Two hours after infection, medium was replaced with fresh medium containing 10% fetal calf serum and α-tocopherol (α-T) or aminoguanidine (AG) at indicated concentrations. Virus production at 96 h after infection was determined by fluorescent focus assay in which MRC-5 cells and shown as a fold change relative to no treatment (NT). The fold-changes are the average of two independent infections. Results are set out in FIG. 2.
MRC5 fibroblasts were infected with the AD169 strain of HCMV at a multiplicity of 0.5 infectious units/cell in glutamine/GlutaMAX-free DMEM containing 10% dialyzed FCS. The dialyzed serum was used to completely eliminate the glutamine in the culture medium. The cells received either 2 mM GlutaMAX, which served as a control, or 7 mM α-kg. At 96 hours post infection, infectious virus in the medium was assayed by fluorescent focus assay using antibody to the HCMV IE1 protein.

MRC5 cells = assay: Cytotoxicity evident upon visual inspection of treated infected cells; type: cell-based, human; details: 100 μM fatty acid; VZV-infected MRC5 cells
VZV [1] = assay: Yield of cell-free VZV from infected MRC5 cells, plaque assay on ARPE-19 cells; type: cell-based, varicella zoster virus; details: for VZV yield, fold change relative to no treatment (NT): added 6 hpi; for VZV yield, fold change relative to no treatment (NT) / VZV yield relative to no treatment (NT): MOI 1:50, 72 h; for VZV yield relative to no treatment (NT): 25 μM fatty acid plus 10 μM αT, 6 h after infection, sonicated immediately
Method: For this test, MRC5 cells (passage 20-25) were seeded at a density of 300.000 cell/100 mm culture dish and grown in 15 ml of DMEM containing 10% fetal calf serum plus 2 mM GlutaMAX (GIBCO®, GlutaMAX™) at 35° C. A lipid mixture (LM-1, 1 ml/liter medium, Sigma Aldrich #L5146) was added to the cells either at the time of seeding or 1 day after seeding. Three days later, the culture medium was replaced with 10 ml growth medium containing 50 mM sucrose as a stabilizer. The cells were further incubated for 3 days and growth medium was replaced with fresh medium containing no sucrose. After cells reached confluence, they were infected with VZV by adding infected cells (1 infected cell/50 uninfected cells; infected cells were from a preparation frozen in a solution of 10% DMSO plus 90% fetal calf serum and stored in liquid nitrogen). At the time of infection, the cultures were re-fed with DMEM containing 10% fetal calf serum plus 2 mM glutamax. Arachidonic acid (AA)+alpha-tocopherol (αT) or DHA+αT were added at the indicated times. 72 hours after infection, cells were washed twice with PBS, and incubated in 10 ml of PBS containing 50 mM ammonium chloride for 50 minutes at 4° C. The cells were harvested and frozen in PSGC buffer (Harper et al., Arch Virol 143:1163-70, 1998) at −80° C. Infectious virus was subsequently quantified by plaque assay of sonicated cells on ARPE-19 cells (American Type Culture Collection). Results are set out in FIG. 3.
Briefly, in these repeat experiments, MRC5 cells were infected with VZV at an MOI=1:50. AA, DHA, and αT were added to the cells at 6 hpi as indicated. 72 hours after infection, the cells were harvested into PSGC buffer and frozen at −80° C. for later processing. After thawing, the cells were sonicated and the yield of cell free VZV quantified by standard plaque assay on ARPE-19 cells. Fold change relative to no treatment (NT) is shown. […] The fold-changes are the average of two independent infections.
In brief, MRC5 cells were infected with VZV at an MOI=1:50. Lipid mixture 1(LM-1) was added to the cells immediately after cell seeding. At 6 hours after infection, up to about 100 μM AA or […] was added to cells together with up to about 10 μM αT. 72 hours after infection, the cells were harvested into PSGC buffer and either frozen at −80° C. and sonicated later for the release of virus (frozen cells) or immediately sonicated after harvesting and supernatants containing the cell-free VZV were frozen at −80° C. (frozen sup.) prior to titration. Cell-free VZV yield was quantified by plaque assay on APRE-19 cells. Fold change relative to no treatment (NT) is shown. The numbers above the bars indicate the amount of virus obtained per ml in the corresponding treatment. The results are set out in FIG. 5.
Briefly, MRC5 cells were infected with VZV at an MOI=1:50. Six hours after infection cells were treated with indicated combinations of lipids plus 10 μM αT. Hexacosanoic acid (HSA) and octacosanoic acid (OSA) were dissolved in 20 mg/ml α-cyclodextin (Sigma-Aldrich) in PBS by sonication and added to a solution of 10 mg/ml fatty acid-free BSA (Sigma-Aldrich) in PBS (1:1, v/v) to give a stock concentration of 10 mM for each fatty acid. HSA, OSA, and DHA were used at 25 μM, and AA was used at 25 μM. Two sets of fatty acid concentrations was used for combination treatments: DHA, AA, and HSA was either added at concentrations of 25 μM, 100 μM, and 25 μM (high), or 10 μM, 50 μM, and 10 μM (low), respectively. 72 hours after infection, the cells were harvested into PSGC buffer, sonicated immediately and the yield of cell free VZV quantified by plaque assay on ARPE-19 cells. Fold change relative to no treatment (NT) is shown. The fold-changes are the average of two independent infections.
Briefly, MRC5 cells were grown in DMEM containing 10% fetal calf serum, 2 mM GlutaMAX) at 35° C. as described in the text. […]

VZV [2] = assay: as above; type: cell-based, varicella zoster virus; details: for VZV yield relative to no treatment (NT): with 10 μM α-T, 6 h after infection, HSA and DHA 25 μM, AA 100 μM, MOI 1:100, 72 hours post infection; for VZV yield, factor of increase: MOI 1:250, 72 h
[3] = additive alone in medium from 2 h after infection, OA, LA, LLA up to about 100 μM, EPA 75 μM, DHA 50 μM, AG 250 μM, chol. 13 μM
[4] = fatty acid together with aminoguanidine (up to about 250 μM)
[5] = 25 μM fatty acid, absence of αT

Cc1c(C)c2c(c(C)c1O)CC[C@@](C)(CCC[C@H](C)CCC[C@H](C)CCCC(C)C)O2 [alpha-tocopherol]
HCMV production relative to no treatment (NT) (AD169 strain of HCMV; Example 2, FIG. 2, scavenging compound alone from 2 h after infection, MRC5, 96 h): enhances the production of HCMV

N=C(N)NN [aminoguanidine]
HCMV yield, fold change relative to no treatment (NT) (AD169 strain of HCMV; [3]): about 2.6 fold

CCCCC/C=C\C/C=C\CCCCCCCC(=O)O [LA, linoleic acid]
HCMV yield, fold change relative to no treatment (NT) (AD169 strain of HCMV; [3]): had little effect on the yield | HCMV yield, fold change relative to no treatment (NT) (AD169 strain of HCMV; [4]): reduced

CC/C=C\C/C=C\C/C=C\C/C=C\C/C=C\CCCC(=O)O [EPA, eicosapentaenoic acid]
HCMV yield, fold change relative to no treatment (NT) (AD169 strain of HCMV; [3]): 2.5 fold

CC/C=C\C/C=C\C/C=C\C/C=C\C/C=C\C/C=C\CCC(=O)O [DHA, docosahexaenoic acid]
Cytotoxicity / cellular toxicity (MRC5 cells): toxic in the absence or presence of αT | HCMV yield, fold change relative to no treatment (NT) (AD169 strain of HCMV; [3]): 4.6 fold | VZV yield, fold change relative to no treatment (NT) (VZV [1]; [5]): about 1.5 fold

CCCCC/C=C\C/C=C\C/C=C\C/C=C\CCCC(=O)O [AA, arachidonic acid]
VZV yield, fold change relative to no treatment (NT) (VZV [2]; 100 μM fatty acid in the presence of αT, added 6 hpi, MOI 1:50, 72 h): 5 fold | VZV yield relative to no treatment (NT) (VZV [2]): elevated the yield of VZV | VZV yield, fold change relative to no treatment (NT) (VZV [1]; 25 μM fatty acid in the presence of αT): increased the virus yield | VZV yield, fold change relative to no treatment (NT) (VZV [1]; [5]): enhanced the yield of virus | VZV yield, fold change relative to no treatment (NT) (VZV [1]; 100 μM fatty acid, absence of αT): inhibited virus production

COC(=O)CCC(=O)C(=O)OC [α-kg, dimethyl-α-ketoglutarate]
VZV replication / titers (VZV [2]; 1 mM α-kg in the absence of GlutaMAX, MOI 1:100, 72 h): unable to support virus replication | VZV replication / titers (VZV [2]; 2.5 mM α-kg in the absence of GlutaMAX, MOI 1:100, 72 h): unable to support virus replication | VZV yield, fold increase relative to GlutaMAX (NT; 2 mM) (VZV [2]; 7 mM α-kg alone, glutamine/GlutaMAX-free medium, MOI 1:50, added 6 hpi, 72 h): 3.4 fold | VZV replication, fold enhancement compared to the addition of 2 mM GlutaMAX (VZV [2]; 7 mM α-kg in the absence of GlutaMAX, MOI 1:100, 72 h): 2.8 fold | VZV yield, fold increase (VZV [2]; 7 mM α-kg in the presence of 2 mM GlutaMAX, MOI 1:100, added 6 h, 72 h): about 2.1 fold | Concentration required to optimally support the replication of VZV (VZV [2]; MRC5, MOI 1:100, 72 h): > 2.5 mM | VZV yield, factor of increase (VZV [2]; glutamine-free medium supplemented with dialyzed serum (10% dialyzed FCS)): ~9.7 | VZV yield, factor of increase (VZV [2]; glutamine/GlutaMAX-free medium containing normal serum (10% FCS)): ~3.7 fold | Production of cell-free HCMV, fold increase relative to 2 mM GlutaMAX control (AD169 strain of HCMV; 7 mM α-kg replacing glutamine, glutamine/GlutaMAX-free DMEM, 10% dialyzed FCS, 0.5 infectious units/cell, 96 hours post infection): 4.3 fold

CCCCCCCC/C=C\CCCCCCCC(=O)O [OA, oleic acid]
Cytotoxicity / cellular toxicity (MRC5 cells): without causing observable cellular toxicity | HCMV yield, fold change relative to no treatment (NT) (AD169 strain of HCMV; [3]): reduced the yield of HCMV | HCMV yield, fold change relative to no treatment (NT) (AD169 strain of HCMV; [4]): reduced | VZV production, factor of reduction (VZV [1]; 100 μM): 2

CCCCCCCCCCCCCCCCCCCCCCCCCC(=O)O [HSA, hexacosanoic acid]
VZV yield relative to no treatment (NT) (VZV [2]): elevated the yield of VZV | VZV yield relative to no treatment (NT) (VZV [1]): improved virus yields in comparison to no treatment

CC/C=C\C/C=C\C/C=C\CCCCCCCC(=O)O [LLA, α-linolenic acid]
HCMV yield, fold change relative to no treatment (NT) (AD169 strain of HCMV; [3]): about 1.2 fold | HCMV yield, fold change relative to no treatment (NT) (AD169 strain of HCMV; [4]): reduced

CC(C)CCC[C@@H](C)[C@H]1CC[C@H]2[C@@H]3CC=C4C[C@@H](O)CC[C@]4(C)[C@H]3CC[C@]12C [cholesterol]
VZV yield, factor relative to no treatment (VZV [2]; 13 μM cholesterol, MOI 1:100, 72 hr after infection): increased the yield of VZV by a factor of about two | HCMV yield, fold change relative to no treatment (NT) (AD169 strain of HCMV; [3]): no effect on HCMV yield | HCMV yield, effect on the enhancing effects of fatty acids (AD169 strain of HCMV; cholesterol (up to about 13 μM) together with fatty acids, MRC5, 96 h after infection): did not improve, and in some cases inhibited

CCCCCCCCCCCCCCCCCCCCCCCCCCCC(=O)O [OSA, octacosanoic acid]
VZV yield relative to no treatment (NT) (VZV [1]): improved virus yields in comparison to no treatment
